Data: the supplement of paper PMC11451515

Test system: SEM cells
Test: cell viability relative to DMSO control; higher = less cytotoxic
Conditions: 48 h
Method in brief: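 Leukemia cells (NOMO1 or SEM, 500 cells/well; P12-Ichikawa, 1000 cells/well) were seeded in 5 μl in 1536-well plates after at least four passages of adaptation to each medium. They received library compounds in DMSO by pin dosing, 11 threefold points from 47 μM to 0.79 nM. Luminescence with CellTiter-Glo One was read after 48 h at 37°C. Viability is stated per plate relative to DMSO wells, with cell-free wells as background.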

[1] = HPLM + 10% dialyzed FBS, 0.000781 µM
[2] = HPLM + 10% dialyzed FBS, 0.00234 µM
[3] = HPLM + 10% dialyzed FBS, 0.00702 µM
[4] = HPLM + 10% dialyzed FBS, 0.0211 µM
[5] = HPLM + 10% dialyzed FBS, 0.0632 µM
[6] = HPLM + 10% dialyzed FBS, 0.19 µM
[7] = HPLM + 10% dialyzed FBS, 0.569 µM
[8] = HPLM + 10% dialyzed FBS, 1.71 µM
[9] = HPLM + 10% dialyzed FBS, 5.12 µM
[10] = HPLM + 10% dialyzed FBS, 15.4 µM
[11] = HPLM + 10% dialyzed FBS, 46.1 µM
[12] = RPMI 5 mM glucose + 10% FBS, 0.000781 µM
[13] = RPMI 5 mM glucose + 10% FBS, 0.00234 µM
[14] = RPMI 5 mM glucose + 10% FBS, 0.00702 µM
[15] = RPMI 5 mM glucose + 10% FBS, 0.0211 µM
[16] = RPMI 5 mM glucose + 10% FBS, 0.0632 µM
[17] = RPMI 5 mM glucose + 10% FBS, 0.19 µM
[18] = RPMI 5 mM glucose + 10% FBS, 0.569 µM
[19] = RPMI 5 mM glucose + 10% FBS, 1.71 µM
[20] = RPMI 5 mM glucose + 10% FBS, 5.12 µM
[21] = RPMI 5 mM glucose + 10% FBS, 15.4 µM
[22] = RPMI 5 mM glucose + 10% FBS, 46.1 µM
[23] = RPMI 5 mM glucose + 10% dialyzed FBS, 0.000781 µM
[24] = RPMI 5 mM glucose + 10% dialyzed FBS, 0.00234 µM
[25] = RPMI 5 mM glucose + 10% dialyzed FBS, 0.00702 µM
[26] = RPMI 5 mM glucose + 10% dialyzed FBS, 0.0211 µM
[27] = RPMI 5 mM glucose + 10% dialyzed FBS, 0.0632 µM
[28] = RPMI 5 mM glucose + 10% dialyzed FBS, 0.19 µM
[29] = RPMI 5 mM glucose + 10% dialyzed FBS, 0.569 µM
[30] = RPMI 5 mM glucose + 10% dialyzed FBS, 1.71 µM
[31] = RPMI 5 mM glucose + 10% dialyzed FBS, 5.12 µM
[32] = RPMI 5 mM glucose + 10% dialyzed FBS, 15.4 µM
[33] = RPMI 5 mM glucose + 10% dialyzed FBS, 46.1 µM

Structure (SMILES)	cell viability [1]	cell viability [2]	cell viability [3]	cell viability [4]	cell viability [5]	cell viability [6]	cell viability [7]	cell viability [8]	cell viability [9]	cell viability [10]	cell viability [11]	cell viability [12]	cell viability [13]	cell viability [14]	cell viability [15]	cell viability [16]	cell viability [17]	cell viability [18]	cell viability [19]	cell viability [20]	cell viability [21]	cell viability [22]	cell viability [23]	cell viability [24]	cell viability [25]	cell viability [26]	cell viability [27]	cell viability [28]	cell viability [29]	cell viability [30]	cell viability [31]	cell viability [32]	cell viability [33]
CCn1nnc2c(N3CCOCC3)nc(-c3ccc(NC(=O)Nc4ccc(C(=O)N5CCN(C)CC5)cc4)cc3)nc21	109%	104%	87.4%	82.6%	61.5%	58.2%	103%	54.3%	54.1%	49.8%	41.9%	124%	116%	90.5%	81.3%	64.2%	56.2%	114%	49.5%	48.4%	46.4%	40.5%	101%	95.9%	79%	71.6%	60.3%	54.3%	123%	50.8%	49.5%	44.9%	47.8%
CCNC(=O)Nc1ccc(Oc2ncnc(N)c2/C=N/OC)cc1Cl	96.9%	100%	99.8%	105%	110%	112%	117%	73.5%	78.5%	68.1%	83.1%	75.3%	84.1%	75.5%	78.7%	74.9%	79.5%	70.5%	37.4%	70%	44.8%	56.8%	99.5%	103%	111%	111%	108%	117%	111%	55.9%	75.4%	56%	74.7%
CO[C@H]1CCC(O[C@H]2C[C@H]([C@]3(C)CC[C@]4(C[C@H](O)[C@@H](C)[C@@H]([C@@H](C)/C=C(\C)C(=O)[C@H](C)C[C@H](C)C(=O)[O-])O4)O3)O[C@]3(O[C@@H]([C@H]4O[C@@](O)(CO)[C@H](C)C[C@@H]4C)C[C@@H]3C)[C@@H]2C)O[C@@H]1C (some centres not stated)												121%	119%	112%	108%	117%	128%	98.3%	66.6%	29.8%	18.7%	14.3%											
CCCCc1ccc2[nH]c(NC(=O)OC)nc2c1	75.4%	92.3%	98.4%	79.4%	72.3%	26.6%	25.9%	23.8%	26.2%	23%	16.1%	80%	81.5%	87.2%	75.5%	52.4%	16.4%	15.6%	14.5%	18%	13.1%	10.8%	98.8%	95.8%	102%	77.2%	56.9%	23.5%	18.2%	20.8%	23.6%	19.4%	12.4%
COc1cc(NCc2ccc3nc(N)nc(N)c3c2C)cc(OC)c1OC	78.1%	89.2%	91.1%	100%	99.6%	104%	99.7%	38.1%	40.3%	32.5%	12.1%	69.1%	94.4%	84.9%	84.9%	96.8%	93.2%	96.8%	24.4%	98.4%	72.5%	3.26%	74.5%	89.3%	88.6%	82.3%	94.4%	94.8%	102%	23.9%	62.9%	35.7%	3.29%
C[C@@H]1[C@H]\2[C@H](O)[C@H]3[C@H](N(C)C)\C(=C(C(N)=O)/C(=O)[C@@]3(O)\C(=C2C(=O)C4=C(O)C=CC=C14)O)O												115%	131%	110%	127%	109%	145%	122%	121%	126%	102%	123%	123%	122%	123%	122%	108%	133%	149%	144%	113%	89.9%	93.4%
COc1ccc(CCC(=O)c2c(O)cc(O[C@@H]3O[C@H](CO)[C@@H](O)[C@H](O)[C@H]3O[C@@H]3O[C@@H](C)[C@H](O)[C@@H](O)[C@H]3O)cc2O)cc1O	112%	115%	120%	128%	128%	119%	128%	119%	134%	124%	116%																						
C=CC(=O)Nc1cc2c(Nc3ccc(F)c(Cl)c3)ncnc2cc1C#CC(C)(C)N1CCN(C)CC1	99.3%	107%	108%	114%	106%	104%	92.3%	87.1%	17.3%	4.78%	2.96%	112%	116%	112%	118%	105%	138%	103%	87.7%	22.2%	4.92%	4.19%	102%	104%	95.8%	97%	102%	106%	107%	87.7%	19.3%	4.98%	3.49%
Clc2cccc(Cl)c2\N=C1/NCCN1	76.6%	98.6%	28.8%	105%	90.8%	116%	119%	108%	114%	122%	113%	92.7%	103%	9.62%	119%	106%	115%	105%	112%	112%	119%	110%	93.3%	116%	28.5%	126%	131%	132%	127%	130%	131%	117%	138%
